Assay results as given in US11485751B2, “Apramycin derivatives” (WAYNE STATE UNIVERSITY, priority 2017, dated 2022).
pIC50: −log10 of the molar value. Converted amounts (≈) assume the structure as drawn. Read-outs that look alike come from different tables or passages of the source.

Assays:
[1] = tested on: AG220, Pseudomonas aeruginosa ATCC27853; experiment: MIC reference strain AG220; type: cell-based; details: for MIC: Pseudomonas aeruginosa
From the text: (§1) Minimal inhibitory concentrations (MIC) have been determined by broth microdilution assays (CLSI. Methods for Dilution Antimicrobial Susceptibility Tests for Bacteria That Grow Aerobically; Approved Standard—Tenth Edition. CLSI document M07-A10. Wayne, Pa.: Clinical and Laboratory Standards Institute; 2015.).
(§2) Table 4 and 5 show the antibacterial activity of the compounds of the invention against bacterial reference strains (table 4) and against representative clinical isolates (table 5).
(§3) Legend to Tables: GEN, gentamicin; AMK, amikacin; PLZ, plazomicin; APR, apramycin; AG212, Escherichia coli ATCC25922; AG215, Klebsiella pneumonia; AG220, Pseudomonas aeruginosa ATCC27853; AG225, Acinetobacter baumannii pittii; AG290, Enterobacter cloacae; […], Mycobacterium smegmatis. MICs for AG192 have been determined in the presence of 0.5 μg/mL of ampicillin in the medium to mimic the synergistic effect of aminoglycoside and β-lactam antibiotics combination therapy in the treatment of Enterococcus infections in humans.

[2] = tested on: K. pneum. AG269 AAC(3)-II AAC(6′)-I rmtB; experiment: Activity against G1405-methylated 16S-rRNA, clinical isolate AG269; type: cell-based
From the text: as §1

[3] = tested on: Engineered E. coli pH424 armA; experiment: Activity against G1405-methylated 16S-rRNA, E. coli pH424 armA; type: cell-based
From the text: as §1

[4] = tested on: Engineered E. coli pH427 rmtF; experiment: Activity against G1405-methylated 16S-rRNA, E. coli pH427 rmtF; type: cell-based
From the text: as §1

[5] = tested on: AG033 P. aer. APH(3′)-II AAC(6′)-I; experiment: Antibacterial activity, clinical isolate AG033; type: cell-based; parameters: unit not given here
From the text: as §1, §2

[6] = tested on: AG290, Enterobacter cloacae; experiment: MIC reference strain AG290; type: cell-based; details: for MIC: Enterobacter cloacae, read-out: MIC AG290 E. cloacae
From the text: as §1, §2, §3

[7] = tested on: AG225, Acinetobacter baumannii pittii; experiment: MIC reference strain AG225; type: cell-based; details: for MIC: Acinetobacter baumannii, read-out: MIC AG225 A. baumannii
From the text: as §1, §2, §3

[8] = tested on: A baum. AG227 APH(3′)-I armA; experiment: Activity against G1405-methylated 16S-rRNA, clinical isolate AG227; type: cell-based
From the text: as §1

AG031 P. aer. APH(3′)-II = experiment: Antibacterial activity, clinical isolate AG031; type: cell-based; parameters: unit not given here
From the text: as §1, §2

[9] = tested on: AG215, Klebsiella pneumonia; experiment: MIC reference strain AG215; type: cell-based; details: for MIC: Klebsiella pneumoniae, read-out: MIC AG215 K. pneumonia
From the text: as §1, §2, §3

ATCC19977 M. abcessus = experiment: MIC reference strain ATCC19977; type: cell-based; details: for MIC: read-out: MIC ATCC19977 M. abcessus
From the text: as §1, §2

[10] = tested on: AG212, Escherichia coli ATCC25922; experiment: MIC reference strain AG212; type: cell-based; details: for MIC: Escherichia coli
From the text: as §1, §2, §3

AG032 P. aer. APH(3′)-II = experiment: Antibacterial activity, clinical isolate AG032; type: cell-based; parameters: unit not given here
From the text: as §1, §2

AG038 MRSA = experiment: Antibacterial activity, clinical isolate AG038; type: cell-based; parameters: unit not given here
From the text: as §1, §2

[11] = tested on: Enterob. AG302 AAC(3)-II AAC(6′)-I rmtC; experiment: Activity against G1405-methylated 16S-rRNA, clinical isolate AG302; type: cell-based
From the text: as §1

[12] = tested on: AG039 MRSA AAC(6′)-I ANT(4′)-I; experiment: Antibacterial activity, clinical isolate AG039; type: cell-based
From the text: as §1, §2

[13] = tested on: Engineered E. coli pH425 rmtB; experiment: Activity against G1405-methylated 16S-rRNA, E. coli pH425 rmtB; type: cell-based
From the text: as §1

[14] = tested on: E. coli AG153 AAC(3)-II APH(3′)-II rmtB; experiment: Activity against G1405-methylated 16S-rRNA, clinical isolate AG153; type: cell-based; parameters: unit not given here
From the text: as §1

[15] = tested on: AG042 MRSA AAC(6′)-I ANT(4′)-I APH(2′); experiment: Antibacterial activity, clinical isolate AG042; type: cell-based; parameters: unit not given here
From the text: as §1, §2

[16] = tested on: Engineered E. coli pH430 WT; experiment: Activity, engineered E. coli pH430 WT; type: cell-based; parameters: unit not given here; details: wild type
From the text: as §1

[17] = tested on: Engineered E. coli pH426 rmtC; experiment: Activity against G1405-methylated 16S-rRNA, E. coli pH426 rmtC; type: cell-based
From the text: as §1

isolates carrying apmA = experiment: MIC broth microdilution, apmA; type: cell-based; details: apmA resistance gene
From the text: as §1, with “2015.). […]” for “2015.).”
(§4) Minimal inhibitory concentrations (μg/ml) against clinical isolates from Institute of Medical Microbiology, Univ. Zurich, and the IC50 values for bacterial, human mitochondrial and human cytosolic ribosomes are indicated.
(§5) The Minimal inhibitory concentrations (MICs, μg/ml) against clinical isolates from Institute of Medical Microbiology, Univ Zurich, and the IC50 values for bacterial, human mitochondrial and human cytosolic ribosomes are indicated.

AG001 E. coli WT = experiment: Antibacterial activity, clinical isolate AG001; type: cell-based; parameters: unit not given here
From the text: as §1, §2

[18] = tested on: clinical isolates carrying AAC(3)-IV; experiment: MIC broth microdilution, AAC(3)-IV; type: cell-based; details: read-out: MIC AAC(3)-IV
From the text: as §1
(§6) Minimal inhibitory concentrations (MICs, […]) against clinical isolates from Institute of Medical Microbiology, Univ. Zurich, and the IC50 values for bacterial, human mitochondrial and human cytosolic ribosomes are indicated.
as §4, §5

AG173 E. coli AAC(3)-IV = experiment: Antibacterial activity, clinical isolate AG173; type: cell-based
From the text: as §1, §2

WT clinical isolates = experiment: MIC broth microdilution, WT; type: cell-based; details: read-out: MIC WT, clinical isolates, IMM Univ. Zurich; wild type
From the text: as §1, §6, §4, §5

[19] = tested on: SZ380, Mycobacterium smegmatis; experiment: MIC reference strain SZ380; type: cell-based; details: Mycolicibacterium smegmatis, read-out: MIC SZ380 M. smegmatis
From the text: as §1, §2, §3

bacterial ribosomes = experiment: in-vitro translation assay, bacterial ribosomes; type: biochemical
From the text: (§7) IC50 values for bacterial, human chimeric, and rabbit reticulocyte ribosomes have been determined by in-vitro translation assays as described previously (Proc. Nat. Ac. Sci USA 2012, 109(27):10984-10989).
as §6

[20] = tested on: human mitochondrial ribosomes; experiment: in-vitro translation assay, human mitochondrial (human chimeric) ribosomes; type: biochemical
From the text: as §7, §6

[21] = tested on: human cytosolic ribosomes; experiment: in-vitro translation assay, human cytosolic ribosomes; type: biochemical
From the text: as §7, §6

AG055 E. coli WT = experiment: Antibacterial activity, clinical isolate AG055; type: cell-based; parameters: unit not given here
From the text: as §1, §2

AG003 E. coli AAC(3)-II = experiment: Antibacterial activity, clinical isolate AG003; type: cell-based; parameters: unit not given here
From the text: as §1, §2

[22] = ATCC27853, read-out: MIC AG220 P. aeruginosa
[23] = ATCC25922, read-out: MIC AG212 E. coli

Compound	Activity K. pneum. AG269 AAC(3)-II AAC(6′)-I rmtB [2]	Activity E. coli pH424 armA [3]	Activity A baum. AG227 APH(3′)-I armA [8]	Antibacterial activity AG031 P. aer. APH(3′)-II (AG031 P. aer. APH(3′)-II)	MIC (ATCC19977 M. abcessus) [µg/mL]	Antibacterial activity AG038 MRSA (AG038 MRSA)	Activity Enterob. AG302 AAC(3)-II AAC(6′)-I rmtC [11]	Activity E. coli AG153 AAC(3)-II APH(3′)-II rmtB [14]	Activity E. coli pH430 WT [16]	MIC (isolates carrying apmA) [µg/mL]	Antibacterial activity AG001 E. coli WT (AG001 E. coli WT)	MIC [1, 22] [µg/mL]	MIC [6] [µg/mL]	MIC [7] [µg/mL]	MIC [18] [µg/mL]	Antibacterial activity AG173 E. coli AAC(3)-IV (AG173 E. coli AAC(3)-IV)	MIC [19] [µg/mL]	pIC50 (bacterial ribosomes)	MIC [9] [µg/mL]	MIC [10, 23] [µg/mL]	other results
NCC[C@H](O)C(=O)N[C@@H]1C[C@H](N)[C@@H](O[C@H]2O[C@H](CN)[C@@H](O)[C@H](O)[C@H]2O)[C@H](O)[C@H]1O[C@H]1O[C@H](CO)[C@@H](O)[C@H](N)[C@H]1O [AMK, amikacin, reference compound]	>256	>128	>256	4	2 (≈ 3.42 µM)	4	>256	>256	1	–	–	–	–	–	–	–	–	–	–	–	MIC ([1]; ATCC27853, reference strain ATCC27853, read-out: MIC AG220 P. aeruginosa): 2 µg/mL; Activity E. coli pH427 rmtF [4]: >128; Antibacterial activity AG033 P. aer. APH(3′)-II AAC(6′)-I [5]: 64; MIC ([6]; reference strain): 1 µg/mL; MIC ([7]; reference strain): 2 µg/mL; MIC ([9]; reference strain): 1 µg/mL; MIC ([10]; reference strain ATCC25922, read-out: MIC AG212 E. coli): 2 µg/mL; Antibacterial activity AG032 P. aer. APH(3′)-II (AG032 P. aer. APH(3′)-II): 4; Antibacterial activity AG039 MRSA AAC(6′)-I ANT(4′)-I [12]: 2-4; Activity E. coli pH425 rmtB [13]: >128; Antibacterial activity AG042 MRSA AAC(6′)-I ANT(4′)-I APH(2′) [15]: 16-32; Activity E. coli pH426 rmtC [17]: >128
CN[C@H]1C(O)C2O[C@H](O[C@@H]3C(N)C[C@@H](NC(=O)C(O)CCN)[C@@H](O)[C@H]3O)C(N)C[C@@H]2O[C@@H]1O[C@H]1OC(CO)[C@@H](N)[C@H](O)C1O (stereo partly shown) [DC191]	2	2	4	–	2 (≈ 3.12 µM)	4	2-4	4	2-4	8 (≈ 12.5 µM)	8	4	2	8	4 to 8 (≈ 6.24 to 12.5 µM)	4-8	0.5	6.70	1 to 2	2	MIC (WT clinical isolates): 2 to 4 µg/mL (≈ 3.12 to 6.24 µM); pIC50 [20]: 4.01; pIC50 [21]: 4.06
CNC1C(O)C2O[C@H](O[C@@H]3C(N)C[C@@H](N)[C@@H](O)[C@H]3OCCCO)C(N)C[C@@H]2O[C@@H]1O[C@H]1OC(CO)[C@@H](N)[C@H](O)C1O (stereo partly shown) [DC207]	8	4	16-32	128	8 (≈ 13.4 µM)	32	8-16	8	8	> 128	16	64	16	32	> 128	>128	1	6.22	8	16	pIC50 [20]: < 3.00; pIC50 [21]: < 3.00
CNC1C(O)C2O[C@H](O[C@@H]3C(N)C[C@@H](N)[C@@H](O)[C@H]3OCC(O)CO)C(N)C[C@@H]2O[C@@H]1O[C@H]1OC(CO)[C@@H](N)[C@H](O)C1O (stereo partly shown) [DC208]	4	2	8	32	2 (≈ 3.26 µM)	8-16	4	8	4-8	> 128	8	16 to 32	4	16	64 (≈ 104 µM)	>64	0.5	6.68	4	8	MIC (WT clinical isolates): 4 to 8 µg/mL (≈ 6.52 to 13 µM); pIC50 [20]: 3.36; pIC50 [21]: < 3.00
gentamicin [reference compound]	>256	>128	>256	0.5	–	0.25-0.5	>256	>256	0.25	–	1	–	–	–	–	–	–	–	–	–	MIC AG220 P. aeruginosa ([1]; reference strain ATCC27853): 0.5 to 1 µg/mL; Activity E. coli pH427 rmtF [4]: >128; Antibacterial activity AG033 P. aer. APH(3′)-II AAC(6′)-I [5]: 16; MIC AG290 E. cloacae ([6]; reference strain): 0.25 µg/mL; Antibacterial activity AG055 E. coli WT (AG055 E. coli WT): 0.5; MIC AG225 A. baumannii ([7]; reference strain): 0.5 to 1 µg/mL; MIC AG215 K. pneumonia ([9]; reference strain): 0.25 µg/mL; MIC ATCC19977 M. abcessus (ATCC19977 M. abcessus; reference strain): 2 to 4 µg/mL; MIC AG212 E. coli ([10]; reference strain ATCC25922): 0.5 µg/mL; Antibacterial activity AG032 P. aer. APH(3′)-II (AG032 P. aer. APH(3′)-II): 0.5; Antibacterial activity AG039 MRSA AAC(6′)-I ANT(4′)-I [12]: 0.25-0.5; Antibacterial activity AG003 E. coli AAC(3)-II (AG003 E. coli AAC(3)-II): 32-64; Activity E. coli pH425 rmtB [13]: >128; Antibacterial activity AG042 MRSA AAC(6′)-I ANT(4′)-I APH(2′) [15]: 64; Activity E. coli pH426 rmtC [17]: >128
